The source of these data is US20260184710A1, “CASITAS B-LINEAGE LYMPHOMA PROTOONCOGENE B (CBL-B) DEGRADING COMPOUNDS AND ASSOCIATED METHODS OF USE” (Arvinas Operations, Inc., priority 2022, published 2026).

As a reminder, the Dmax is the largest share of the target that was removed.

Assay [1] deals with T1, Cbl-b (Homo sapiens, UniProt Q13191).
T1 construct: Cbl-b-HiBit KI Jurkat Cells were purchased from Promega; host or cells: Cbl-b-HiBiT knock-in Jurkat cells
Nature of the assay: Cbl-b Degradation Method A (FACS, anti-Cbl-b antibody staining). The note with it: Cbl-b-HiBit KI Jurkat Cells, incubated at least 20 hours; for DC50: half maximal degradation, read-out: Cbl-b Degredation Method A IC50; for Dmax: Jurkat, maximum degradation observed, read-out: Cbl-b Degredation Method A Dmax (%). The assay is classed as cell-based. Summed up: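 Readout is flow cytometry of fixed, permeabilized cells immunostained for Cbl-b (primary 1:200, AF488 secondary). Cells were Cbl-b-HiBit knock-in Jurkat, exposed to compound ≥20 h at 37 °C; half-maximal degradation concentration (DC50) and maximal degradation (Dmax) calculated relative to control.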

The target of assay [2] is T1, Cbl-b. Nature of the assay: Cbl-b Degradation Method B (Nano-Glo HiBiT lytic detection). The assay is classed as cell-based. The note with it: Cbl-b-HiBit KI Jurkat Cells, incubated at least 6-24 hours; for DC50: half maximal degradation, read-out: Cbl-b Degredation Method B IC50; for Cbl-b Degredation Method B Dmax (%): maximum degradation observed. Summed up:
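An 11-point, 3-fold compound dilution was applied for 6-24 hours to Jurkat cells carrying HiBiT-tagged endogenous Cbl-b. Lytic HiBiT luminescence quantified residual protein. Outputs are DC50 and Dmax relative to DMSO control.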
For orientation: HiBiT is a short tag that completes a luciferase, so light tracks the accessible tagged protein.

T1 sequence (Q13191 whole entry): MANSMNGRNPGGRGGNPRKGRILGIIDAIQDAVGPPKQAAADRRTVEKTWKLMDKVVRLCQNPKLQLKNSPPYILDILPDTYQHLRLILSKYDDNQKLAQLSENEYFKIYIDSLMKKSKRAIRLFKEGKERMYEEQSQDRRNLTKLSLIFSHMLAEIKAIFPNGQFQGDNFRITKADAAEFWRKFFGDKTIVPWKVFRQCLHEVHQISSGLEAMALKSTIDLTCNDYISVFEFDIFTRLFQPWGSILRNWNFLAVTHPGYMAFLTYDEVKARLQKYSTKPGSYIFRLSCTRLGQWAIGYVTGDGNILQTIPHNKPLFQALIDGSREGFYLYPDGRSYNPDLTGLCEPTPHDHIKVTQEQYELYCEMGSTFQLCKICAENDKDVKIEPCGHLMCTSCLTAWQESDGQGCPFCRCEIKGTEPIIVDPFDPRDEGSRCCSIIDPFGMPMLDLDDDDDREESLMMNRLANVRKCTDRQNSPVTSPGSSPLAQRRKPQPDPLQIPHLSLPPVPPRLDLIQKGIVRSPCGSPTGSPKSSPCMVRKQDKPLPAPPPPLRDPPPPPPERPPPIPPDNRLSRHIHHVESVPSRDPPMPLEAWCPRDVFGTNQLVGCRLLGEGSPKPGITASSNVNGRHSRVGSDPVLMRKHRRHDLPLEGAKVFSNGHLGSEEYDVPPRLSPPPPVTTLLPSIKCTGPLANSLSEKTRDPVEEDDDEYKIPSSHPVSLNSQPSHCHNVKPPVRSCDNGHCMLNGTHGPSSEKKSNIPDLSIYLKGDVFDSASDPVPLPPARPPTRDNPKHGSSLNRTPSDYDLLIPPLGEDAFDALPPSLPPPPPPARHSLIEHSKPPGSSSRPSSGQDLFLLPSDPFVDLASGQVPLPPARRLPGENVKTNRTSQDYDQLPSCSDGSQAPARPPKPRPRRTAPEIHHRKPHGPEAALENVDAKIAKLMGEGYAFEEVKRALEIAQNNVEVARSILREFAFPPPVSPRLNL

Consider `CC(C)n1c(=O)n(C2CCC(=O)NC2=O)c2cccc(N3CCC(O[C@H]4CC[C@H](CN5CC6(CCN(Cc7cc8c(c(C(F)(F)F)c7)CN(c7cccc([C@]9(Cc%10nncn%10C)C[C@@H](C#N)C9)c7)C8=O)CC6)C5)CC4)CC3)c21` (stereo partly shown) [Example 321, (1r,3r)-3-[(4-methyl-4H-1,2,4-triazol-3-yl)methyl]-3-(3-{1-oxo-6-[(2-{[(1r,4r)-4-({1-[1-(2,6-dioxopiperidin-3-yl)-2-oxo-3-(propan-2-yl)-2,3-dihydro-1H-1,3-benzodiazol-4-yl]piperidin-4-yl}oxy)cyclohexyl]methyl}-2,7-diazaspiro[3.5]nonan-7-yl)methyl]-4-(trifluoromethyl)-2,3-dihydro-1H-isoindol-2-yl}phenyl)cyclobutane-1-carbonitrile], for which, on Cbl-b [1], the DC50 was in the range of 5 to 50 nM and the Dmax is below 35%. For the same compound, on Cbl-b [2], the DC50 is below 5 nM and the “Cbl-b Degredation Method B Dmax (%)” value is given as “C (C ≤ 35)”.
Regarding `CC(C)n1c(=O)n(C2CCC(=O)NC2=O)c2cccc(N3CCC(O[C@H]4CC[C@H](CN5CCN(Cc6cc7c(c(C(F)(F)F)c6)CN(c6cccc([C@]8(Cc9nncn9C)C[C@@H](C#N)C8)c6)C7=O)C6(COC6)C5)CC4)CC3)c21` (stereo partly shown) [Example 322, (1r,3r)-3-[(4-methyl-4H-1,2,4-triazol-3-yl)methyl]-3-(3-{1-oxo-6-[(8-{[(1r,4r)-4-({1-[1-(2,6-dioxopiperidin-3-yl)-2-oxo-3-(propan-2-yl)-2,3-dihydro-1H-1,3-benzodiazol-4-yl]piperidin-4-yl}oxy)cyclohexyl]methyl}-2-oxa-5,8-diazaspiro[3.5]nonan-5-yl)methyl]-4-(trifluoromethyl)-2,3-dihydro-1H-isoindol-2-yl}phenyl)cyclobutane-1-carbonitrile], at Cbl-b [1], the DC50 lay within 50 to 500 nM and the Dmax was above 70%. Moreover, at Cbl-b [2], the DC50 lay within 5 to 50 nM and the “Cbl-b Degredation Method B Dmax (%)” value is “C (C ≤ 35)”.
For the compound `CC(C)n1c(=O)n(C2CCC(=O)NC2=O)c2cccc(N3CCC(O[C@H]4CC[C@H](CN5CCN(Cc6cc7c(c(C(F)(F)F)c6)CN(c6cccc([C@]8(Cc9nncn9C)C[C@@H](C#N)C8)c6)C7=O)CC[C@H]5C)CC4)CC3)c21` (stereo partly drawn) [Example 323, (1r,3r)-3-[3-(6-{[(5R)-5-methyl-4-{[(1r,4r)-4-({1-[1-(2,6-dioxopiperidin-3-yl)-2-oxo-3-(propan-2-yl)-2,3-dihydro-1H-1,3-benzodiazol-4-yl]piperidin-4-yl}oxy)cyclohexyl]methyl}-1,4-diazepan-1-yl]methyl}-1-oxo-4-(trifluoromethyl)-2,3-dihydro-1H-isoindol-2-yl)phenyl]-3-[(4-methyl-4H-1,2,4-triazol-3-yl)methyl]cyclobutane-1-carbonitrile], at Cbl-b [1], the DC50 lay in the range of 5 to 50 nM and the Dmax fell in the range of 35 to 70%. At Cbl-b [2], the DC50 was below 5 nM and the “Cbl-b Degredation Method B Dmax (%)” value is listed as “C (C ≤ 35)”.
In the case of `Cn1cnnc1C[C@]1(c2cccc(N3Cc4c(cc(CN5CCN(C[C@H]6CC[C@H](OC7CCN(c8cccc9c8n(C(F)F)c(=O)n9C8CCC(=O)NC8=O)CC7)CC6)CC5(C)C)cc4C(F)(F)F)C3=O)c2)C[C@H](C#N)C1` (stereo partly shown) [Example 324, (1r,3r)-3-(3-{6-[(2,2-dimethyl-4-{[(1r,4r)-4-({1-[3-(difluoromethyl)-1-(2,6-dioxopiperidin-3-yl)-2-oxo-2,3-dihydro-1H-1,3-benzodiazol-4-yl]piperidin-4-yl}oxy)cyclohexyl]methyl}piperazin-1-yl)methyl]-1-oxo-4-(trifluoromethyl)-2,3-dihydro-1H-isoindol-2-yl}phenyl)-3-[(4-methyl-4H-1,2,4-triazol-3-yl)methyl]cyclobutane-1-carbonitrile], at Cbl-b [1], the DC50 is 5 to 50 nM and the Dmax was in the range of 35 to 70%. Moreover, at Cbl-b [2], the DC50 was below 5 nM and the “Cbl-b Degredation Method B Dmax (%)” value was “C (C ≤ 35)”.
